US4904462A, “Multiply-tritiated steroidal-20,17-spirolactones and their use as tracer compounds” (Schering Aktiengesellschaft, priority 1984, dated 1990)

Key:
[1] = target: T1, mineralocorticoid receptor (Rattus norvegicus, UniProt P22199); test: Relative binding affinity, mineralocorticoid receptor, kidney cytosol, 3H-aldosterone displacement; settings: kidney cytosol of adrenalectomized rats; 3H-aldosterone 8 nmol/l; aldosterone = 100% RBA
T1 construct: Cytosol from human uterus, rat kidneys and rat livers was prepared by homogenizing the tissues; from tissue; host or cells: kidney cytosol of adrenalectomized rats
T1 sequence (P22199 1-981): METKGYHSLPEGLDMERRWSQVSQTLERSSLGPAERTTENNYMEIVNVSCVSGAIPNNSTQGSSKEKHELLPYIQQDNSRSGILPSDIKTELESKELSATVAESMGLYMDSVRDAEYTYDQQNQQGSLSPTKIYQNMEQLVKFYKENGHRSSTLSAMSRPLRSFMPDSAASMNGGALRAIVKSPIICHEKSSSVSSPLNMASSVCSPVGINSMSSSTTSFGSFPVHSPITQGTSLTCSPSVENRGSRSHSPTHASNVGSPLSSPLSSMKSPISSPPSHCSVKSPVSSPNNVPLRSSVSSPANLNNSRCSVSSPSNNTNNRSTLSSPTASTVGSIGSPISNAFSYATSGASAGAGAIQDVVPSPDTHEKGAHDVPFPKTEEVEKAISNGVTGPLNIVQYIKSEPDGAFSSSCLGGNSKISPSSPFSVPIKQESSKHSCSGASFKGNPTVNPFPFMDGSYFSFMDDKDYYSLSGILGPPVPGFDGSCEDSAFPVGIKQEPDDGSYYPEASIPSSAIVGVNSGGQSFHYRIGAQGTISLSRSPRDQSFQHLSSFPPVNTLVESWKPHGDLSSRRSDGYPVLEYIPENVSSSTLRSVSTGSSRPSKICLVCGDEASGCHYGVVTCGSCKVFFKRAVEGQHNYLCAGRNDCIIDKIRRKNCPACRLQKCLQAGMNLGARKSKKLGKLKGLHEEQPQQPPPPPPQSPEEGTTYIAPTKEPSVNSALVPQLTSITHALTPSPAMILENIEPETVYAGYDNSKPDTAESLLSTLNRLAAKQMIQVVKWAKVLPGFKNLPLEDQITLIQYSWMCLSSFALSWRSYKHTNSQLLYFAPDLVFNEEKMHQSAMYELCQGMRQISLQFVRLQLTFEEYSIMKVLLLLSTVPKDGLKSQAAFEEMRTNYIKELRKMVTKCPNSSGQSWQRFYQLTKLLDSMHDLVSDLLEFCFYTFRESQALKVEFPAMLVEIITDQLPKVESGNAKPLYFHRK
Description: (§1) The relative binding affinities (RBA values) of aldosterone, prorenone as well as the compounds of this invention were determined, for the progesterone receptor, in human uterus cytosol, for the glucocorticoid receptor, in liver cytosol, and for the mineralocorticoid receptor, in the kidney cytosol of adrenalectomized rats. The relative binding affinity with respect to CBG was measured in the serum of pregnant women, diluted 1:30.
(§2) Cytosol from human uterus, rat kidneys and rat livers was prepared by homogenizing the tissues under cooling with the addition of receptor-stabilizing buffer (10 mmol/1 of KH2 PO4, 10 mmol/1 of K2 HPO4, 1.5 mmol/1 of EDTA, 3 mmol/1 of NaN3, 5 mmol/1 of monothioglycerol, 10% glycerol, pH 7.5). The homogenate was then centrifuged for 30 minutes at 105,000×g. The thus-formed supernatant centrifugation liquor corresponds to the tissue cytosol utilized for receptor testing. Then, in each case, 50 μl of a ^3 H-steroid (^3 H-R5020) for progesterone receptor testing, ^3 H-dexamethasonefor glucocorticoid receptor testing, ^3 H-aldosterone for mineralocorticoid receptor testing), dissolved in a buffer, was pipetted into test tubes (final concentration 8 nmol/1). Thereafter, the various steroids to be tested (in respectively six different concentrations: 10^-10 to 10^-5 mol/1) in 50 μl of buffer were added to the incubating tubes. Finally, 100 μl of cytosol was introduced into each tube by pipetting, and the incubation batch was thoroughly mixed and incubated overnight at 0°-4° C. Incubation was terminated by adding 0.5 ml of dextran-layered activated carbon (DCC) in a buffer. After 10 minutes of incubation under cooling, DCC was removed by centrifuging and thus the free, not receptor-bound steroid was separated from the receptor-bound steroid. The radioactivity was measured in the supernatant centrifugation liquors by means of a scintillation counter. All thus-determined values result from triple measurements. The measured dpm values were expressed in % of relative binding affinity, the RBA value referring to 50% displacement of the ^3 H-labeled ligand by its unlabeled authentic steroid (=100% RBA).

[2] = target: T2, glucocorticoid receptor (Rattus norvegicus, UniProt P06536); test: Relative binding affinity, glucocorticoid receptor, liver cytosol, 3H-dexamethasone displacement; settings: for Relative binding affinity (RBA), Glucocorticoid Receptor: rat liver cytosol, 3H-dexamethasone 8 nmol/l, dexamethasone = 100% RBA
T2 construct: Cytosol from human uterus, rat kidneys and rat livers was prepared by homogenizing the tissues; from tissue; host or cells: rat liver cytosol
T2 sequence (P06536 1-795): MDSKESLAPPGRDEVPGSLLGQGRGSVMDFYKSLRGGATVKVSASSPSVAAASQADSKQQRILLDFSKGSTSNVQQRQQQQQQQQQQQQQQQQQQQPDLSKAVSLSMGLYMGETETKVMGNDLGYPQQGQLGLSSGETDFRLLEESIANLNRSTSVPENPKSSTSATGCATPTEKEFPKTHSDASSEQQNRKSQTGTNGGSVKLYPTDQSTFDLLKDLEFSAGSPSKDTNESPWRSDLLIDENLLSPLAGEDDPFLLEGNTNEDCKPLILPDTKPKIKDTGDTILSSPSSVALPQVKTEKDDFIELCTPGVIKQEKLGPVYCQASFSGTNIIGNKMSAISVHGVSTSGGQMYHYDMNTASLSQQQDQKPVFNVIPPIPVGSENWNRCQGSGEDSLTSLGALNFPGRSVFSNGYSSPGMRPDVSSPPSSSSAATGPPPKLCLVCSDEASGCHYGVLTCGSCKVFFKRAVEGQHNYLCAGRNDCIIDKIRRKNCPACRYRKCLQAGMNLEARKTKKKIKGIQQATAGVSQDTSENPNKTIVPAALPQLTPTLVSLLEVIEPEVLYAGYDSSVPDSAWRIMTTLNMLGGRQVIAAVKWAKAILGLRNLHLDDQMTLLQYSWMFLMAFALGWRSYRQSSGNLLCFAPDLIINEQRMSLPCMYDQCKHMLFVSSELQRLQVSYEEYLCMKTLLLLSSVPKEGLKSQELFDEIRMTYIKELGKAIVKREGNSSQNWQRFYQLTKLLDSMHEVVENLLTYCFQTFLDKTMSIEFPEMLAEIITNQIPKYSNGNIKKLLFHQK
Description: as §1, §2

[3] = tested on: progesterone receptor; test: Relative binding affinity, progesterone receptor, human uterus cytosol, 3H-R5020 displacement; settings: 3H-R5020 8 nmol/l, R5020 = 100% RBA
Description: as §1, §2

[4] = target: T3, CBG (Homo sapiens, UniProt P08185); test: Relative binding affinity to CBG, serum of pregnant women, 3H-cortisol displacement; settings: for Relative binding affinity (RBA), CBG: serum of pregnant women diluted 1:30, 3H-cortisol, cortisol = 100% RBA
T3 construct: a 1:30 dilution of the serum of pregnant women as the source of CBG; from tissue; host or cells: serum of pregnant women, diluted 1:30
T3 sequence (P08185 23-405): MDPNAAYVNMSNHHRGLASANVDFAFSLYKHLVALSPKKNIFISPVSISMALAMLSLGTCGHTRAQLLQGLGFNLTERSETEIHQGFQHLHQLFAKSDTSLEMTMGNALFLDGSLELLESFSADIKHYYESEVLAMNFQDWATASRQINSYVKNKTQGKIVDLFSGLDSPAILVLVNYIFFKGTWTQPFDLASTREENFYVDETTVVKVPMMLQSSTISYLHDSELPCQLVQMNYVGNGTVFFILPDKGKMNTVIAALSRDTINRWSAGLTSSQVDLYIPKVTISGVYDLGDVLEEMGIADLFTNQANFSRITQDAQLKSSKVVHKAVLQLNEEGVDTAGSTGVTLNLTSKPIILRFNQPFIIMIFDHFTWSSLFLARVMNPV
Description: as §1
As for the RBA values, for CBG an analogous procedure was followed, using ^3 H-cortisol and a 1:30 dilution of the serum of pregnant women as the source of CBG.

[5] = Metabolic stability under the conditions of the receptor test; type: in vitro ADME; settings: in vitro receptor test conditions

| Compound | Relative binding affinity (RBA), Mineralocorticoid Receptor [1] | Relative binding affinity (RBA), Glucocorticoid Receptor [2] | Relative binding affinity (RBA), Progesterone Receptor [3] | Relative binding affinity (RBA), CBG [4] | relative binding affinity in rat liver cytosol ([2]; with respect to dexamethasone) | relative binding affinity (RBA value) to the human serum protein CBG ([4]; with respect to cortisol) | metabolic stability under the conditions of the receptor test [5] |
| --- | --- | --- | --- | --- | --- | --- | --- |
| 1α,2α;15β,16β-dimethylene-7α-methoxycarbonyl-3-oxo-17α-[18,19-^3 H4 ]pregn-4-ene-21,17-carbolactone [Example 7] | 600% | 0.2% | 0.2% | < 0.1% | – | – | – |
| 6μ,7β;15β,16β-dimethylene-3-oxo-17α-[18,19-^3 H4 ]pregna-1,4-diene-21,17-carbolactone [Example 3] | 90% | 0.9% | 50% | < 0.1% | – | – | – |
| 7α-(^3 H3)methoxycarbonyl-15β,16β-methylene-3-oxo-17α-[18,19-^3 H4 ]pregn-4-ene-21,17-carbolactone [Example 4] | 400% | 0.8% | 0.5% | < 0.1% | – | – | – |
| 7α-[1'-(^3 H3)-ethoxy]carbonyl-15β,16β-methylene-3-oxo-17α-pregn-4-ene-21,17-carbolactone [Example 8] | 800% | 0.8% | 0.95% | < 0.1% | – | – | – |
| 7α-[1'-(^3 H3)ethoxy]carbonyl-15β,16β-methylene-3-oxo-17α-pregna-1,4-diene-21,17-carbolactone [Example 6] | 600% | 0.4% | 0.2% | < 0.1% | – | – | – |
| C[C@]12CCC(=O)C=C1CC[C@@H]1[C@@H]2[C@@H](O)C[C@]2(C=O)[C@@H](C(=O)CO)CC[C@@H]12 [Aldosterone, reference compound] | – | 30% | 0.2% | 6% | 30% | 6% | is metabolized under in vitro conditions of receptor testing |
| C[C@]12CCC(=O)C=C1[C@@H]1C[C@@H]1[C@H]1[C@@H]3[C@@H]4C[C@@H]4[C@@]4(CCC(=O)O4)[C@@]3(C)CC[C@@H]12 [Prorenone, reference compound] | 200% | 3% | 32% | < 0.01% | – | – | – |
